As a reminder, the MIC is the smallest concentration in the dilution series that meets the test's criterion for growth inhibition. Lower therefore signals a more susceptible organism.

Results on eight compounds are retold here after patent publication US7348357B2, “Arylamides” (Bayer HealthCare AG, priority 2002, dated 2008).

Experiment [1] deals with Haemophilus influenzae Spain 7. The experiment in a line: Minimum inhibitory concentration (MIC), liquid dilution test. Particulars: BHI broth plus 20% bovine serum, 10 μg/ml hemin and 1% Isovitale, 37° C., 18-24 hours, 8-10% CO2, lowest concentration with no visible bacterial growth. It counts as cell-based. The protocol: (§1) Determination of the Minimum Inhibitory Concentration (MIC): The MIC is determined in a liquid dilution test. Overnight cultures of the test organisms are diluted to a cell count of 10^5 organisms per ml in Isosensitest medium (Difco, Irvine, USA) and are incubated with dilutions of the test substances (1:2 dilution stages). Exceptions are the tests with S. pneumoniae […], which are conducted in BHI broth (Difco) plus 20% bovine serum, and with H. influenzae, which are conducted in BHI broth (Difco) plus 20% bovine serum, 10 μg/ml hemin and 1% Isovitale (Becton Dickinson, New Jersey, USA). The cultures are incubated at 37° C. for 18-24 hours; S. pneumoniae and H. influenzae in the presence of 8-10% CO2. The lowest concentration of each substance at which there is no longer any visible bacterial growth is defined as the MIC. The MICs in μmol/l of some compounds of the invention against a series of test organisms are listed by way of example in the table below.

Experiment [2] has as its system Staphylococcus aureus 133. The description is as above. The format is cell-based. Particulars: Isosensitest medium, 10^5 organisms per ml, 37° C., 18-24 hours, lowest concentration with no visible bacterial growth. The protocol:
as §1

The next experiment relates to bacteria. The following applies: described in the literature (J. Am. Chem. Soc. 1987, J. Org. Chem. 1994, J. Antibiot. 1997); cited from earlier work.

In brackets after ≈: the same amount, converted by molar mass.

As to `CC(C)[C@H](NC(=O)C[C@H](NC(=O)c1cccc(F)n1)c1ccccc1)C(=O)[C@@H]1C(=O)NC(=O)[C@H]1C` [Example 2, 6-Fluoro-N-{(1S)-3-[((1S)-2-methyl-1-{[(3R,4S)-4-methyl-2,5-dioxo-3-pyrrolidinyl]-carbonyl}propyl)amino]-3-oxo-1-phenylpropyl}-2-pyridinecarboxamide], the “MIC Haemophilus influenzae Spain 7” value in experiment [1] stood at 7.81 µM. It took 15.6 µM (≈ 7.54 µg/mL) to inhibit growth in experiment [2] (MIC).

As to `CC(C)[C@H](NC(=O)C[C@H](NC(=O)c1cc(-c2ccccc2)ccn1)c1ccccc1)C(=O)[C@@H]1C(=O)NC(=O)[C@H]1C` [Example 6, N-{(1S)-3-[((1S)-2-Methyl-1-{[(3R,4S)4-methyl-2,5-dioxo-3-pyrrolidinyl]-carbonyl}propyl)amino]-3-oxo-1-phenylpropyl}-4-phenyl-2-pyridinecarboxamide], the “MIC Haemophilus influenzae Spain 7” value in experiment [1] was determined as 15.63 µM. Also, the MIC in experiment [2] was 7.81 µM (≈ 4.22 µg/mL).

For the compound `C[C@@H]1C(=O)NC(=O)[C@H]1C(=O)C(NC(=O)C[C@H](NC(=O)c1ccccn1)c1ccccc1)C1CCCC1` (stereo partly drawn) [Example 9, N-[(1S)-3-({1-Cyclopentyl-2-[(3R,4S)-4-methyl-2,5-dioxo-3-pyrrolidinyl]-2-oxoethyl}amino)-3-oxo-1-phenylpropyl]-2-pyridinecarboxamide], the “MIC Haemophilus influenzae Spain 7” value in experiment [1] is 62.5 µM. In experiment [2], this compound showed an MIC of 7.81 µM (≈ 3.83 µg/mL).

Regarding `C[C@@H]1C(=O)NC(=O)[C@H]1C(=O)[C@@H](NC(=O)C[C@H](NC(=O)c1cc2cc(F)ccc2[nH]1)c1ccccc1)C1CCCC1` [Example 48, N-[(1S)-3-({(1S)-1-Cyclopentyl-2-[(3R,4S)4-methyl-2,5-dioxo-3-pyrrolidinyl]-2-oxoethyl}amino)-3-oxo-1-phenylpropyl]-5-fluoro-1 H-indole-2-carboxamide], the “MIC Haemophilus influenzae Spain 7” value in experiment [1] was found to be 15.63 µM. Moreover, it took 0.98 µM (≈ 0.536 µg/mL) to inhibit growth in experiment [2] (MIC).

Take `COc1ccc(CC(=O)N[C@@H](CC(=O)N[C@H](C(=O)[C@@H]2C(=O)NC(=O)[C@H]2C)C(C)C)c2ccccc2)c(Cl)c1Cl` [Example 109]: the “MIC Haemophilus influenzae Spain 7” value in experiment [1] is 62.5 µM. The compound also registered an MIC in experiment [2] of 0.98 µM (≈ 0.565 µg/mL).

Consider `C/C=C/C=C/C=C/C(=O)N[C@@H](CC(=O)N[C@H](C(=O)[C@@H]1C(=O)NC(=O)[C@H]1C)C(C)C)c1ccccc1` [andrimid], for which the antibacterial activity result in the experiment on bacteria is reported as “having antibacterial activity”.

Regarding `C/C=C/C=C/C(=O)N[C@@H](CC(=O)N[C@H](C(=O)[C@@H]1C(=O)NC(=O)[C@H]1C)C(C)C)c1ccccc1` [moiramide B], in the experiment with bacteria, the antibacterial activity entry was “having antibacterial activity”.

`C/C=C/C=C/C=C/C(=O)N[C@@H](CC(=O)N[C@H](C(=O)[C@@]1(O)C(=O)NC(=O)[C@H]1C)C(C)C)c1ccccc1` [moiramide C]: in the experiment with bacteria, the antibacterial activity result is “inactive”.
